Data from ChEMBL document CHEMBL1201862, “PubChem BioAssay data set” (2004).
The source made the active and inactive calls.

Tests used:
[1] = biological target: T1, Cytochrome P450 1A2 (Homo sapiens, UniProt P05177);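 note: PubChem cytochrome P450 panel assay, CYP1A2 panel member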
T1 sequence (P05177 whole entry): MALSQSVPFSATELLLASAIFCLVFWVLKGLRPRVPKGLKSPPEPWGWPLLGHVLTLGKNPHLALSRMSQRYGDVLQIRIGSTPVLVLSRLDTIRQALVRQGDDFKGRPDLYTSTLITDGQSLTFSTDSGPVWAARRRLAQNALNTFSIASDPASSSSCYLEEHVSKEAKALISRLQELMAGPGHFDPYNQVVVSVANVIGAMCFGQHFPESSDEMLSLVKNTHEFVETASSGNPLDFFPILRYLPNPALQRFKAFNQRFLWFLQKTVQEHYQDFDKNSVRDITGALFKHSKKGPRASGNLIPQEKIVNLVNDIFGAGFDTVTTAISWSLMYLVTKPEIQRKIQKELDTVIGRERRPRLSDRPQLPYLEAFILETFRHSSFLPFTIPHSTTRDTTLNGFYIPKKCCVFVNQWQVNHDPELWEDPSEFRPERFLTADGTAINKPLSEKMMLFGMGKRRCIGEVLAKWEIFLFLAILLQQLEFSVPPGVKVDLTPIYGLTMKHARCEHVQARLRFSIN

[2] = Trypanosoma cruzi growth suppression in host cells – NIH3T3 host cells, beta-gal luminescence, confirmation (AID 2044); format: functional, cell-based;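 note: intracellular parasites grown in NIH/3T3 mouse fibroblasts as host cells; luminescent beta-galactosidase reporter signal from transgenic T. cruzi replicating inside host cells; inhibitors lower the luminescence signal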
[3] = NIH3T3 cell viability loss – ATP luminescence, mouse fibroblasts, counter-screen, dose response (AID 2010); format: functional, cell-based;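 note: cells exposed to compound for about 90 hours before reading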
[4] = system: Streptococcus sp. 'group A'; assay: Streptococcus pyogenes SK(-)GAS viability under kanamycin – luminescence, BacTiterGlo, confirmation, counter-screen for streptokinase expression inhibitor project, dose response (AID 1900); format: functional, organism-based
[5] = biological target: T2, Streptokinase A (Streptococcus pyogenes serotype M1, UniProt P10520); assay: viability-normalized secreted streptokinase activity reduction – plasminogen activation absorbance, OD405, dose response (AID 1914); format: functional, Streptococcus pyogenes M1 GAS;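 note: secreted streptokinase activity via plasminogen activation per viability signal from cell pellet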
T2 sequence (P10520 whole entry): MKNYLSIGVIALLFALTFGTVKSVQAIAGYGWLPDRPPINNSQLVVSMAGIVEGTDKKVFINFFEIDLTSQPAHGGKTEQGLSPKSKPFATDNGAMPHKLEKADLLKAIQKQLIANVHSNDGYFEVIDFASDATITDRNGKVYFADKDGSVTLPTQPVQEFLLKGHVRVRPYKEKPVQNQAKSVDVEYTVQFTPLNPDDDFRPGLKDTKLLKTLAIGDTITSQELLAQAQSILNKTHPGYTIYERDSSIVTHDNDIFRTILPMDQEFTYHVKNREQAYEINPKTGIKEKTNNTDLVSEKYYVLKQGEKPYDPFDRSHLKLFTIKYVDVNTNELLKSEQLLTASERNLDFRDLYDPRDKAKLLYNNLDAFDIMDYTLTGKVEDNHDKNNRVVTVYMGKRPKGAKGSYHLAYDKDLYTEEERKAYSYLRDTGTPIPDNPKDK

[6] = system: Streptococcus; assay: GAS UMAA2166 growth inhibition – luminescence, BacTiterGlo, counter-screen for streptokinase expression inhibitor project, dose response (AID 1915); format: functional, organism-based;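 note: potency for reduction of bacterial viability or growth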
[7] = biological target: Cytochrome P450 2C19 (Homo sapiens, UniProt P33261); assay: Cytochrome panel assay with activity outcomes. Panel member name: p450-cyp2c19 Compounds with AC50 equal or less than 10 uM are considered active; format: functional
Cytochrome P450 2C19, sequence (P33261 whole entry): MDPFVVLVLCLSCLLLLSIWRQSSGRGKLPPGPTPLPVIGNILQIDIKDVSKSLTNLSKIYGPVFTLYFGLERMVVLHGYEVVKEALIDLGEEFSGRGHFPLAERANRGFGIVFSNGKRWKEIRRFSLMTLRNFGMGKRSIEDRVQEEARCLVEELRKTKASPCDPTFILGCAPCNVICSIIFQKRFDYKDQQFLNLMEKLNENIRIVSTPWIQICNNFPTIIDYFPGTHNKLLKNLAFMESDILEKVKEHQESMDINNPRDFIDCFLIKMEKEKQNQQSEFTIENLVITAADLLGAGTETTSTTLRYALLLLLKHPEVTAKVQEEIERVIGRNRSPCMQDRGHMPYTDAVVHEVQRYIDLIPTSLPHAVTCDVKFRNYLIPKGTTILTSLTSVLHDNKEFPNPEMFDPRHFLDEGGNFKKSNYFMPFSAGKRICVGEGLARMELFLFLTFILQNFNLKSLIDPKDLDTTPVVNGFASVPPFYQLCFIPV

[8] = Luminescence Cell-Based Dose Response HTS to Identify Activators of Luciferase Translation or Activity in H4 […] Cells. [Related pubchem assays: 1829 (Project Summary), 1814 (Primary HTS)]; format: functional
[9] = system: H4; assay: Luminescence Cell-Based Dose Response HTS to Identify Activators of 5'UTR Stem-Loop Driven Prion Protein mRNA Translation in H4 Neuroglioblastoma Cells. [Related pubchem assays: 1829 (Project Summary), 1814 (Primary HTS)]; format: functional; settings: Homo sapiens

With `CS(=O)(=O)c1ccc(/C=N\NC(N)=S)cc1` the AC50 [1] was 5.01 µM (inconclusive).
In the case of `Cc1c(C(=O)Nc2cccc([N+](=O)[O-])c2)csc1-c1ccccc1`, the EC50 [2] is reported as 1.43 µM (active) and the EC50 [3] is reported as > 60 µM (not active).
In the case of `COc1cc(/C=C/C(=O)OC2CC3CCC2(C)C3(C)C)ccc1O` (centres undefined), the EC50 [4] is reported as 6.88 µM (active), the EC50 [5] is reported as 7.32 µM (active) and the EC50 [6] is reported as 6.7 µM (active).
With `Cn1c(O)c(C(c2ccccn2)c2c(O)n(C)c(=S)[nH]c2=O)c(=O)[nH]c1=S` the AC50 ([7]; read-out: AC50) was 0.316 µM (inconclusive).
In the case of `Cc1cc(C)c(S(C)(=O)=O)c(Oc2ccc(F)cc2)n1`, the AC50 ([7]; read-out: AC50) is reported as 20 µM (inconclusive).
With `COc1ccc(-c2cc3n(n2)CCc2nc4ccccc4n2-3)cc1` the EC50 [8] was 10.5 µM (active) and the EC50 [9] was 12.5 µM (active).
For `Cc1ccc(-c2[nH]nc(N)c2N=Nc2ccccc2C)cc1`, the EC50 [4] was 2.63 µM (active), the EC50 [5] was > 150 µM (not active) and the EC50 [6] was 8.03 µM (active).
With `CCOC(=O)c1cnn(-c2cc(Oc3ccccc3)ncn2)c1N` the AC50 ([7]; read-out: AC50) was 31.6 µM (inconclusive) and the AC50 [1] was 14.1 µM (inconclusive).
With `C[C@@H](Cc1ccccc1)NCCC(c1ccccc1)c1ccccc1` the AC50 ([7]; read-out: AC50) was 7.94 µM (inconclusive) and the AC50 [1] was 15.8 µM (inconclusive).
In the case of `Cc1cccc(N2CCN(C(=O)C34CC5CC(CC(C5)C3)C4)CC2)c1C`, the EC50 [4] is reported as 3.81 µM (active), the EC50 [5] is reported as 15.2 µM (active) and the EC50 [6] is reported as 11.3 µM (active).
With `O=c1c2cc(N3CCOCC3)ccc2[nH]c(=S)n1CCc1ccccc1` the EC50 [4] was 0.447 µM (active), the EC50 [5] was > 150 µM (not active) and the EC50 [6] was 12.3 µM (active).
With `CC(C)CN=C(S)N1CCN(C)CC1` the AC50 ([7]; read-out: AC50) was 39.8 µM (inconclusive).
In the case of `C[C@H]1[C@H](C)CC[C@]2(C)CC[C@]3(C)C(=CC[C@@H]4[C@@]5(C)CC[C@@H](O)[C@](C)(C(=O)O)[C@@H]5CC[C@]43C)[C@H]12` [BOSWELLIC ACID], the EC50 [4] is reported as 0.705 µM (active) and the EC50 [6] is reported as 0.963 µM (active).
For `CC1(C)Cc2c(sc3nc(-c4cc5ccccc5o4)n(N)c(=O)c23)CO1`, the EC50 [8] was 0.817 µM (active) and the EC50 [9] was > 120 µM (inconclusive).
For `CC(C)(C)CNC(CO)C12CC3CC(CC(C3)C1)C2` (centres undefined), the AC50 ([7]; read-out: AC50) was 15.8 µM (inconclusive).
With `CCOC(=O)c1ccc(OC(=O)CCCCCNC(=N)N)cc1` the AC50 [1] was 12.6 µM (inconclusive).
For `NCCc1ccc(S(=O)(=O)F)cc1`, the AC50 [1] was 15.8 µM (inconclusive).
In the case of `Cc1c(Cl)cccc1NC(=O)COC(=O)c1c2c(nc3ccccc13)CCN(Cc1ccccc1)C2`, the EC50 [2] is reported as 1.63 µM (active) and the EC50 [3] is reported as > 60 µM (not active).
With `N=C(Cc1ccc(Cl)cc1)NOC(=O)c1cccc2ccccc12` the EC50 [2] was 0.81 µM (active) and the EC50 [3] was > 60 µM (not active).
In the case of `COC(=O)C1=CN(c2ccc(OC)cc2)C=C(C(=O)OC)C1c1ccc([N+](=O)[O-])cc1`, the EC50 [2] is reported as 1.94 µM (active) and the EC50 [3] is reported as > 30 µM (not active).
With `Cc1ccc(S(=O)(=O)N(C(=N)N)c2nc(N(C)C)nc(N(C)C)n2)cc1` the EC50 [2] was 0.879 µM (active) and the EC50 [3] was > 60 µM (not active).
In the case of `CSc1nc(O)c2c(n1)N=C(C)/C(=C(/O)OC(C)C)C2c1ccncc1` (centres undefined), the AC50 [1] is reported as 20 µM (inconclusive).
In the case of `c1ccc(Nc2ccc3c4c(cccc24)CC3)cc1`, the EC50 [2] is reported as 0.97 µM (active) and the EC50 [3] is reported as 59.5 µM (active).
For `CCOc1ccc(CN2CCN(Cc3cccc4nonc34)CC2CCO)cc1` (centres undefined), the EC50 [2] was 0.559 µM (active) and the EC50 [3] was > 60 µM (not active).
In the case of `Cc1cc(=O)c(C(=O)O)cn1Nc1ccc(Cl)cc1`, the EC50 [4] is reported as 3.15 µM (active), the EC50 [5] is reported as > 150 µM (not active) and the EC50 [6] is reported as 14.5 µM (active).
In the case of `CCN1CCC2(CC1)NC(CO)(CO)CO2`, the AC50 [7] is reported as “inconclusive”.
With `O=C(CCC(=O)Nc1cc(C(F)(F)F)ccc1Cl)N/N=C\c1cc([N+](=O)[O-])ccc1O` the EC50 [4] was 0.675 µM (active) and the EC50 [6] was 1.44 µM (active).
In the case of `Cc1ccc(C)c(C(=O)COC(=O)c2cc(Cl)nc3ccccc23)c1`, the EC50 [4] is reported as 60.6 µM (active), the EC50 [5] is reported as 19.4 µM (active) and the EC50 [6] is reported as > 150 µM (not active).
In the case of `COc1ccc(-n2c(=O)c(CCc3ccccc3)nc3cnc(N4CCOCC4)nc32)cc1`, the AC50 ([7]; read-out: AC50) is reported as 25.1 µM (inconclusive) and the AC50 [1] is reported as 15.8 µM (inconclusive).
For `Cc1cc2c(O)nc(N)nc2nc1C`, the AC50 [1] was 6.31 µM (inconclusive).
For `COc1ccccc1OCCCn1c(C)c(C#N)c2ccccc21`, the EC50 [4] was 21.2 µM (active), the EC50 [5] was 23.2 µM (active) and the EC50 [6] was > 150 µM (not active).
For `CCCCCCn1c(=O)c(C(=O)Nc2c(C)n(C)n(-c3ccccc3)c2=O)c(O)c2ccccc21`, the EC50 [4] was 3.09 µM (active), the EC50 [5] was 3.63 µM (active) and the EC50 [6] was 8.06 µM (active).
In the case of `COc1ccc(-c2cnnn2-c2ccc(NC(=O)c3ccco3)cc2)cc1OC`, the AC50 [1] is reported as 14.1 µM (inconclusive).
In the case of `O=C(NCCCN1CCCC1)C1CCN(C(=O)c2cc3sccc3n2Cc2ccc(F)cc2)CC1`, the EC50 [2] is reported as 1.32 µM (active) and the EC50 [3] is reported as > 60 µM (not active).
In the case of `COC(=O)[C@@]1(Cc2ccc(F)cc2)[C@@H]2[C@@H](CC(=O)[C@H]2CC(=O)C(=O)N(C)C)CN1C(=O)c1ccccc1`, the AC50 ([7]; read-out: AC50) is reported as 39.8 µM (inconclusive).
With `COc1ccc(-c2nnc(NC(=O)C3CCCN3S(=O)(=O)c3cccs3)o2)cc1` (centres undefined) the EC50 [4] was > 150 µM (not active), the EC50 [5] was > 150 µM (not active) and the EC50 [6] was > 150 µM (not active).
In the case of `CC1CCCN(C(=O)C(=O)c2cn(CC(=O)N3CCCCCC3)c3ccccc23)C1` (centres undefined), the EC50 [2] is reported as 0.765 µM (active) and the EC50 [3] is reported as > 60 µM (not active).
For `O=C(NCc1ccccc1)C(=O)NCC1OCCN1S(=O)(=O)c1ccc([N+](=O)[O-])cc1` (centres undefined), the EC50 [2] was 0.782 µM (active) and the EC50 [3] was > 60 µM (not active).
For `CCCCCCOC(=O)C(C#N)c1nc2ccccc2nc1N1CCN(C)CC1` (centres undefined), the EC50 [2] was 2.57 µM (active) and the EC50 [3] was 11.3 µM (active).
For `Oc1ccc(-c2nc3c4c(ncn3n2)-c2ccccc2CC42CCCC2)cc1`, the EC50 [4] was 0.909 µM (active) and the EC50 [6] was 0.936 µM (active).
With `CCSc1n[nH]c2c3cccc(C)c3nc-2n1` the EC50 [8] was 2.08 µM (active) and the EC50 [9] was > 120 µM (not active).
For `CC1c2ccccc2SC(CCCN(C)C)c2ccccc21` (centres undefined), the EC50 [2] was 0.639 µM (active) and the EC50 [3] was > 60 µM (not active).
With `Cc1ccc(Nc2ccc([N+](=O)[O-])nc2[N+](=O)[O-])cc1` the EC50 [2] was 1.57 µM (active) and the EC50 [3] was > 60 µM (not active).
For `CN1C2C=C3C(C#N)=C(N)C(C#N)(C#N)[C@H](c4c(F)cccc4F)[C@H]3C1CC2` (some centres undefined), the AC50 ([7]; read-out: AC50) was 22.4 µM (inconclusive).
In the case of `CCN=C(S)NNC(=O)c1cc(C)on1`, the AC50 ([7]; read-out: AC50) is reported as 7.94 µM (inconclusive).
In the case of `O=C(Nc1cccc(Cl)c1N1CCCC1)c1ccc(Br)o1`, the EC50 [4] is reported as 4.12 µM (active), the EC50 [5] is reported as > 150 µM (not active) and the EC50 [6] is reported as 6.85 µM (active).
In the case of `COc1ccc(NC(=O)C2CC(=O)NC3=C2C(=O)CC(C)(C)C3)cc1` (centres undefined), the AC50 ([7]; read-out: AC50) is reported as 39.8 µM (inconclusive).
With `COC(=O)[C@@H]1CC[C@H](C)[C@@H](c2ccc(C)cc2)N1C(=O)c1ccc(/C=N\OC[C@@H](C)[C@H](OCc2ccccc2)C(C)C)cc1` the AC50 ([7]; read-out: AC50) was 6.31 µM (inconclusive).
In the case of `COc1ccc(CCNC(=O)CCCCCN2C(=O)c3ccccc3C2=O)cc1`, the AC50 [1] is reported as 25.1 µM (inconclusive).
In the case of `Cc1cc(NC(=O)/C=C/c2ccccc2Cl)no1`, the EC50 [8] is reported as 118 µM (active) and the EC50 [9] is reported as 9.55 µM (active).
In the case of `CCn1ccc(C(=O)NC2C(=O)N3C(C(=O)O)=C(C)CSC23)n1` (centres undefined), the AC50 ([7]; read-out: AC50) is reported as 14.1 µM (inconclusive).
